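A five-concentration, 48-hour dose response in 96-well plates underlies each endpoint, interpolated linearly between surrounding concentrations. TGI: concentration producing complete growth inhibition.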

Among the test systems are A498 renal; IGROV1 ovarian; HCC-2998 colon; HCT-116 colon; M14 melanoma; SK-OV-3 ovarian; MDA-MB-231 breast; K-562 leukemia; NCI-H522 lung; HOP-62 NSCLC.
Common to all, as to assay: growth of human tumour cells (NCI), 48 h

With `COc1cc(C)cc2c(-c3c(O)cc(O)c4c3C[C@H](C)N[C@H]4C)cc(-c3cc(-c4c(O)cc(O)c5c4C[C@H](C)N[C@H]5C)c4cc(C)cc(OC)c4c3O)c(O)c12`, the TGI in the experiment on A498 renal, in the experiment with IGROV1 ovarian, with HCC-2998 colon, in the experiment with HCT-116 colon, in the experiment on M14 melanoma and with SK-OV-3 ovarian was more than 100 µM throughout. Besides, the TGI in the experiment on MDA-MB-231 breast, in the experiment with K-562 leukemia, with NCI-H522 lung and in the experiment with HOP-62 NSCLC was more than 100 µM throughout.
Consider `O=C1c2ccccc2C(=O)c2nn(N=P(CP(=Nn3nc4c(n3)C(=O)c3ccccc3C4=O)(c3ccccc3)c3ccccc3)(c3ccccc3)c3ccccc3)nc21`, for which the TGI in the experiment with A498 renal, in the experiment with IGROV1 ovarian, with HCC-2998 colon, with HCT-116 colon, in the experiment on M14 melanoma and in the experiment on SK-OV-3 ovarian was more than 100 µM each time. The TGI in the experiment on MDA-MB-231 breast, with K-562 leukemia, in the experiment on NCI-H522 lung and with HOP-62 NSCLC was more than 100 µM throughout.
Take `COc1cc2oc(-c3ccc4c(c3)OCO4)c(OC)c(=O)c2c(O)c1OC`: the TGI in the experiment with A498 renal, in the experiment on IGROV1 ovarian, in the experiment with HCC-2998 colon, with HCT-116 colon, in the experiment with M14 melanoma and in the experiment on SK-OV-3 ovarian was more than 50 µM throughout. In addition, the TGI in the experiment with MDA-MB-231 breast, in the experiment on K-562 leukemia, in the experiment on NCI-H522 lung and with HOP-62 NSCLC was more than 50 µM throughout.
For the molecule `COC1(OC)C=CC(=O)C=C1`, the TGI is more than 91.2 µM with A498 renal; 4.77 µM in the experiment with IGROV1 ovarian; 15.4 µM in the experiment on HCC-2998 colon; 2.77 µM with HCT-116 colon; 11.5 µM in the experiment on M14 melanoma; 26.3 µM in the experiment on SK-OV-3 ovarian. For the same molecule, the TGI in the experiment with MDA-MB-231 breast is 7.2 µM; with K-562 leukemia it was more than 100 µM; in the experiment with NCI-H522 lung, 0.885 µM; in the experiment on HOP-62 NSCLC it was 24.5 µM.
With `O=C(O)CCSC1=NCCN1`, the TGI in the experiment on A498 renal, in the experiment with IGROV1 ovarian, with HCC-2998 colon, with HCT-116 colon, with M14 melanoma and in the experiment on SK-OV-3 ovarian was more than 100 µM each time. The TGI with MDA-MB-231 breast, with K-562 leukemia, with NCI-H522 lung and with HOP-62 NSCLC was more than 100 µM in each case.
With `Cc1ccc(/C=N\NC(=O)c2ccncc2)s1`, the TGI in the experiment with A498 renal, in the experiment on IGROV1 ovarian, in the experiment with HCC-2998 colon, with HCT-116 colon, in the experiment on M14 melanoma and in the experiment with SK-OV-3 ovarian was more than 100 µM throughout. Further, the TGI in the experiment on MDA-MB-231 breast, in the experiment on K-562 leukemia, in the experiment with NCI-H522 lung and with HOP-62 NSCLC was more than 100 µM throughout.
Take `CCN(CC)C1Oc2cc3c(cc2C(c2cc(OC)c(OC)c(OC)c2)C1C)OCO3` (stereo not given): the TGI was 6.65 µM in the experiment on A498 renal; more than 63.2 µM with IGROV1 ovarian; 19.8 µM in the experiment on HCC-2998 colon; 13.4 µM in the experiment on HCT-116 colon; more than 37.9 µM with M14 melanoma; more than 61.7 µM with SK-OV-3 ovarian. In addition, the TGI in the experiment with MDA-MB-231 breast amounted to 65.9 µM; in the experiment on K-562 leukemia it was 11.1 µM; in the experiment with NCI-H522 lung, 6.01 µM; in the experiment on HOP-62 NSCLC, 12.9 µM.
On to `CC1CN=C(c2ccc(CN3CCC(C4CCN(Cc5ccc(C6=NCC(C)N6)cc5)CC4)CC3)cc2)N1` (stereo not given), for which the TGI with A498 renal is 80.6 µM; with IGROV1 ovarian, more than 100 µM; in the experiment with HCC-2998 colon, 30.9 µM; with HCT-116 colon, 34 µM; with M14 melanoma, 44 µM; in the experiment on SK-OV-3 ovarian, 53.9 µM. In addition, the TGI was determined as 36.3 µM in the experiment on MDA-MB-231 breast, 44.8 µM in the experiment on K-562 leukemia, 33.7 µM in the experiment on NCI-H522 lung and 30.9 µM in the experiment with HOP-62 NSCLC.
Take `O=C(O)COc1cc(-c2ccccc2)nc2ccccc12`: the TGI in the experiment with A498 renal, with IGROV1 ovarian, with HCC-2998 colon, with HCT-116 colon, in the experiment with M14 melanoma and in the experiment on SK-OV-3 ovarian was more than 100 µM each time. Also, the TGI in the experiment with MDA-MB-231 breast, with K-562 leukemia, in the experiment on NCI-H522 lung and with HOP-62 NSCLC was more than 100 µM throughout.
Take `COc1ccc(C2SCC(=O)N2NC(=O)C(C)Oc2ccc(Cl)cc2Cl)cc1` (stereo not given): the TGI in the experiment with A498 renal was 76.4 µM; with IGROV1 ovarian, more than 100 µM; in the experiment on HCC-2998 colon it was more than 100 µM; in the experiment on HCT-116 colon, more than 100 µM; in the experiment with M14 melanoma, more than 100 µM; in the experiment on SK-OV-3 ovarian it was more than 100 µM. Besides, the TGI in the experiment with MDA-MB-231 breast was 81 µM; with K-562 leukemia, 89.8 µM; in the experiment with NCI-H522 lung, more than 100 µM; in the experiment on HOP-62 NSCLC it was 48.2 µM.
Consider `N#C/C(=C1/c2cc([N+](=O)[O-])ccc2-c2c1cc([N+](=O)[O-])cc2[N+](=O)[O-])N1CCCCC1`, for which the TGI with A498 renal, in the experiment on IGROV1 ovarian, with HCC-2998 colon, in the experiment on HCT-116 colon, with M14 melanoma and with SK-OV-3 ovarian was more than 100 µM in each case. The TGI with MDA-MB-231 breast, in the experiment on K-562 leukemia, in the experiment with NCI-H522 lung and in the experiment with HOP-62 NSCLC was more than 100 µM throughout.

For the origin of these results see PubChem BioAssay (NCI).
